Data as given in US12458677B2, “Method for preparing Gynostemma pentaphyllum leaf extract and Gynostemma pentaphyllum leaf extract prepared thereby” (BIONIC TRADING CORPORATION, priority 2022, dated 2025).

Assays:
Atrogin-1 = Atrogin-1 mRNA expression (RT-PCR) in TNF-α-treated L6 myotubes; assay type: cell-based; conditions: TNF-α 50 ng/ml alone, 6 hours
Description: (§1) L6 myoblasts (ATCC) were seeded onto a 6-well plate at 2×10^5 cell/mL and then cultured in DMEM (Hyclone) containing 10% FBS (Hyclone). When the cell density reached about 80-85%, the L6 cells were differentiated into myotubes by removing the medium from the well and replacing with DMEM (Hyclone) containing 2% HS (Hyclone). The differentiation was conducted for a total of 6 days while replacing with a fresh medium every other day. After the differentiation, the Gynostemma pentaphyllum leaf extract of Examples or Comparative Example was dissolved in DMEM containing 50 ng/mL of TNF-α to a concentration of 40 μg/mL and treated to the cells. 6 hours later, total RNAs were isolated using a TRIzol reagent (Takara, Osaka, Japan). The isolated total RNAs were quantified using NanoDrop 1000 (Thermo Fisher Scientific Inc., Waltham, MA, USA). 16 μL of the quantified RNAs were mixed with a reverse transcriptase premix (ELPIS-Biotech) and cDNAs were synthesized under the condition of 55 minutes at 42° C. and 15 minutes at 70° C. using a PCR machine (Gene Amp PCR System 2700; Applied Biosystems, Foster City, CA, USA). […]

MuRF-1 = MuRF-1 mRNA expression (RT-PCR) in TNF-α-treated L6 myotubes; assay type: cell-based; conditions: TNF-α 50 ng/ml alone, 6 hours
Description: as §1

## TNF-α
Atrogin-1
  Atrogin-1 (% of control group): 248.5 ± 26.4 % of control group
MuRF-1
  MuRF-1 (% of control group): 411.5 ± 32.7 % of control group
